Test results reported in patent US20260069693A1, “UROLITHINS AND T-CELL MEDIATED IMMUNE RESPONSE” (priority 2022, published 2026).

Experiments:
[1] = system: APTK-OVA tumors; test: adoptive transfer of UA-conditioned OT-1 T cells into mice bearing APTK-OVA tumors; format: in vivo, Rag1^−/− mice
Description: Adoptive cell transfer (ACT) represents the infusion of antigen-specific leukocytes with direct antitumor activity, yet identification, selection and expansion of lymphocyte subsets harboring optimal antitumor qualities remains one of the most crucial challenges (Rosenberg and Restifo, 2015). ACT benefits especially from minimally differentiated cells due to their improved survival and long-term potential to generate unexhausted effector cells (Luca Gattinoni et al; Mo et al., 2021; Roberto et al., 2015). In particular, CD8^+ T cells restricted in a stem-like state have been associated with enhanced tumor suppressive properties upon adoptive cell transfer (Enrico Lugli et al; Verma et al., 2021). […] The inventors cultured T cells from OT-1 donor mice (FIG. 3A) for 48 hours in the presence of UA or vehicle control, followed by adoptive transfer into immunodeficient Rag1^−/− mice. […] Moreover, consistent with an improved memory response, animals receiving UA-pretreated T cells contained less Tim3^HiPD1^Hi terminally exhausted CD8^+ T cells in the TME (FIG. 3I). Thus, UA augments immune-mediated antitumor memory upon adoptive cell transfer.
For adoptive cell transfer transfer, purified splenic T cell from OT1 mice were isolated and activated using aCD3/aCD28 stimulation beads for 48 h. After magnetic bead removal, 1×10^6 T of activated T cell were intravenously injected into Rag1^−/− recipients. To study survival of transferred T cells, stimulated OT-1 T cells were injected into mice without tumors. Subsequently, after 7 days, spleens were isolated and splenocytes were stained for the CD8^+ subsets as described below. To understand antitumor immunity conferred by transferred OT-1 lymphocytes, cells were injected into mice carrying APTK-OVA tumors 10 days after subcutaneous organoid transplantation. Tumor growth was assessed as described above. Mice were kept under regular chow food for the T cell adoptive transfer experiment and sacrificed collectively when maximum tumor diameter extended 1.5 cm.
Tumors were minced and digested with Tumor & Tissue Dissociation Reagent (BD Horizon) for 30 min. The remaining organ pieces were filtered through a 70 μm cell strainer. Cells were then washed with PBS 1% BSA and 2 mM EDTA. Immune cells were enriched on a 30%/40%/75% Percoll gradient after a 1700 rpm 17 min centrifugation. […]

[2] = system: APTK organoids; test: APTK tumor organoids incubated with UA, flow cytometry
[3] = UA-T cell transfer vs DMSO treated OT-I T cells
[4] = increasing concentrations of UA (25-50 μM)

With O=c1oc2cc(O)ccc2c2ccc(O)cc12 [UA, Urolithin A] the “CD62L expression in CD8+ TIL” value [1, 3] was “remained unchanged”, the “expression of CD44 in CD8+ TIL” value [1, 3] was “lower expression” and the “number of TCF1Hi CD8+ tumor infiltrating T cells” value [1, 3] was “higher number”. The “tumor suppression (growth, final tumor weight)” value ([1]; UA-conditioned (25 μM, 48 h) vs control OT-I T cells) was “more substantial tumor suppression”, the “Tim3HiPD1Hi terminally exhausted CD8+ T cells in the TME” value ([1]; UA-pretreated vs DMSO treated OT-I T cells) was “less” and the “MHC-I (antigen presentation)” value ([2]; UA 25-50 μM, 48 h) was “marked upregulation”. The MitoTracker staining [2, 4] was “concomitant loss” and the “formation of lysosomes (lysotracker)” value [2, 4] was “dose-dependent formation”.
